Literature values as cited in patent US8133194B2 (Henry Ford Health System, priority 2006, dated 2012).

Experiments:
[1] = ICU patients
[2] = as stated for pre-filter fluid pH
[3] = under normal conditions, equal to the renal plasma flow

SMILES	K(b) liver clearance of citrate [1] [L/min]	pKa3 [2]	PAH clearance [3]
O=C(O)CC(O)(CC(=O)O)C(=O)O [Citrate]	0.2 to 0.5	6.3	–
Nc1ccc(C(=O)NCC(=O)O)cc1 [PAH, para-amino-hippuric acid]	–	–	up to 0.6 L/minute
